Data as given in patent US9198965B2 (priority 2008, dated 2015).
Where two headings read alike, the source gives them in different places.

Tests used:
VN/1203 [1] = assay type: in vivo, Balb/C mice
PR/8 virus [2] = assay type: in vivo, Balb/C mice; settings: suboptimal dose PR/8 vaccine
VN/1203 virus [3] = assay type: in vivo, Balb/C mice; settings: day 15 and 28 post-vaccination; inactivated VN/1203; EB 200 μM
PR/8 virus [4] = assay: Sedimentation density profiles (density gradient ultracentrifugation) of peptide-treated virus; parameters: species or system A/PuertoRico/8/34 (PR/8, H1N1); settings: EB peptide-treated samples (10 μM, 30 μM)
VN/1203 [5] = assay: Virus specific IgG ELISA after vaccination with inactivated VN/1203 (Example 3); assay type: in vivo, Balb/C mice; settings: 28 days post-vaccination; EB at all concentrations (10 μM, 50 μM, 0.5 mM, 1 mM); i.m., boost day 15
PR/8 virus [6] = assay: Splenocyte IFN-γ ELISpot assay, PR/8 vaccine (Example 8); assay type: in vivo, Balb/C mice; settings: day 15 post-vaccination; inactivated PR/8; EB 50 μM or 200 μM
RAW 264.7 macrophages = assay: Association of FITC-labeled virus with macrophages by flow cytometry; assay type: cell-based; settings: virus treated with 10 μM EB; compared to 0 μM
influenza viruses = settings: in vitro; cited from earlier work
H5N1 influenza virus = settings: mouse, in vivo; cited from earlier work
PR/8 virus [7] = assay: Influenza-specific neutralizing antibodies in sera, suboptimal dose PR/8 vaccine (Example 6); assay type: in vivo, Balb/C mice; settings: day 15 post-vaccination; pooled serum; values <40 negative
VN/1203 [8] = assay: Influenza-specific total IgG, IgG1, IgG2 ELISA after suboptimal dose VN/1203 vaccine (Example 5); parameters: species or system Balb/C mice; settings: mouse, in vivo
influenza virus = settings: cited from earlier work
VN/1203 [9] = assay type: in vivo, Balb/C mice; settings: suboptimal dose vaccine
VN/1203 virus [10] = assay: Microneutralization assay of sera, suboptimal dose VN/1203 vaccine (Example 5); parameters: species or system Balb/C mice; settings: mouse, in vivo

Sequence: RRKKAAVALLPAVLLALLAP [EB]
- weight change compared to day 0 of challenge (VN/1203 [1]; […], EB 10 μM, 50 μM, 0.5 mM or 1 mM, alum 0.5 mg/ml): weight increase
- infectious virus in lungs (TCID50 on MDCK cells) (VN/1203 [1]; […], VN/1203 pretreated with 50 μM or greater amounts of EB): no detectable infectious virus
- infectious virus in lungs (TCID50 on MDCK cells) (VN/1203 [1]; day 10, any of the groups vaccinated with inactivated VN/1203 and EB): no detectable infectious virus
- survival rate (PR/8 virus [2]; EB 50 μM): 100%
- survival rate (PR/8 virus [2]; EB 200 μM): 100%
- IFN-γ levels (IFN-γ secreting splenocytes) (VN/1203 virus [3]): increases
- HA activity as compared to virus alone (PR/8 virus [4]): considerably lower
- virus specific IgG titers compared to inactivated virus alone or alum adjuvanated vaccine (VN/1203 [5]): increased
- IFN-γ levels (IFN-γ secreting splenocytes) (PR/8 virus [6]): increases
- shift in macrophage association peak of FITC-PR/8 (RAW 264.7 macrophages): minimal shift
- concentrations at which EB inhibits virus replication (influenza viruses): ≥ 10 µM
- clinical signs of H5N1 influenza virus infection (H5N1 influenza virus): prevented clinical signs
- survival (H5N1 influenza virus): increased survival
- influenza-specific neutralizing antibody titers (PR/8 virus [7]): negative
- total IgG, IgG1, and IgG2 levels versus suboptimal dose of VN/1203 alone (VN/1203 [8]): the same
- influenza virus attachment to cells (influenza virus): inhibited
- weight loss (VN/1203 [9]; 200 μM EB, no boost): little to no weight loss
- weight loss (VN/1203 [9]; 200 μM EB, with boost): little to no weight loss
- score for clinical signs of infection (0-3) (VN/1203 [9]; 200 μM EB, without boost): 1
- survival rate (VN/1203 [9]; EB 50 μM): > 60%
- score for clinical signs of infection (0-3) (VN/1203 [9]; peptide 200 μM, with boost): 0
- virus neutralizing antibody titers (microneutralization) (VN/1203 virus [10]): negative

Sequence: RRKKLPAVLLALLAP [SEQ ID NO: 4 peptide, derivative of EB retaining RRKK tag with 5 amino acid residues removed from the N-terminus]
- weight loss (VN/1203 [9]; peptide 200 μM): around 20%
- score for clinical signs of infection (0-3) (VN/1203 [9]; peptide 200 μM, with boost): 2
